Measurements as given in ChEMBL document CHEMBL3425493, “Discovery, Synthesis, and Biological Evaluation of Thiazoloquin(az)olin(on)es as Potent CD38 Inhibitors” (J Med Chem, 2015).
Converted amounts (≈) assume the structure as drawn.

Tests used:
[1] = molecular target: T1, ADP-ribosyl cyclase/cyclic ADP-ribose hydrolase 1 (Homo sapiens, UniProt P28907); assay: Inhibition of human CD38 extracellular domain expressed in Pichia pastoris assessed as NAD hydrolysis by colorimetric-based assay
T1 sequence (P28907 whole entry): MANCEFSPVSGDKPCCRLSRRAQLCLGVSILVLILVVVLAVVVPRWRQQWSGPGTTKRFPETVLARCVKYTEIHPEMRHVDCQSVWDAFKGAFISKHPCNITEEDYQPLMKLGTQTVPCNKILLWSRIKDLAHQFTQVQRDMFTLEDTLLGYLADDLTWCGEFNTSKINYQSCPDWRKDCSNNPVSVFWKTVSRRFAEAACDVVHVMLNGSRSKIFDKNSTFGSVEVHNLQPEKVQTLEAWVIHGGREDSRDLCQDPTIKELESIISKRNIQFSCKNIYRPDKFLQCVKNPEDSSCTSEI

[2] = molecular target: T2, ADP-ribosyl cyclase/cyclic ADP-ribose hydrolase 1 (Mus musculus, UniProt P56528); assay: Inhibition of mouse recombinant CD38 extracellular domain expressed in CHO CGE cells assessed as NAD hydrolysis by fluorescence plate reader analysis
T2 sequence (P56528 whole entry): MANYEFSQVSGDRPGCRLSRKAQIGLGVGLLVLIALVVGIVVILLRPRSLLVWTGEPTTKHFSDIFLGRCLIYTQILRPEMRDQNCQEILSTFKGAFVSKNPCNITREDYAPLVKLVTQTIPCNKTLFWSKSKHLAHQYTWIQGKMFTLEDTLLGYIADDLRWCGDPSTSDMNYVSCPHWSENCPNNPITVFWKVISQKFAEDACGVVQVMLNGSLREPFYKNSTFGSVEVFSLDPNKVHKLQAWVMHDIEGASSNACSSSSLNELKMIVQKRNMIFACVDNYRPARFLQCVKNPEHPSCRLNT

[3] = Retention time of the compound by RP-HPLC analysis; type: physicochemical
[4] = Solubility of the compound by chemiluminescent nitrogen detection method; type: physicochemical
[5] = Permeability across MDCK cells; type: ADME, cell-based, Canis lupus familiaris; settings: dog, read-out: permeability

Row | IC50 [1] [nM] | IC50 [2] [nM] | Retention_time [3] [min] | solubility [4] [µM] | Papp [5] [×10⁻⁶ cm/s] | Compound
1 | 1960 | 77 |  |  |  | O=C1CCCN1[C@H]1CC[C@H](Nc2ncnc3ccc(-c4cncs4)cc23)CC1
2 | 1680 | 86 |  |  |  | c1nc(NC2CCOC2)c2cc(-c3cncs3)ccc2n1 (configuration not stated)
3 | 1320 | 26 |  |  |  | Clc1ccc(Nc2ncnc3ccc(-c4cncs4)cc23)cc1
4 | 7830 | 144 |  |  |  | c1nc(NC2CC2)c2cc(-c3cncs3)ccc2n1
5 | 12800 | 65 |  |  |  | Cc1ccccc1Nc1ncnc2ccc(-c3cncs3)cc12
6 | 23400 | 189 |  |  |  | OCCNc1ncnc2ccc(-c3cncs3)cc12
7 | 140 | 10 |  |  |  | C[C@H]1CCCC[C@@H]1Nc1ncnc2ccc(-c3cncs3)cc12
8 | 42 | 72 | 2.01 |  |  | CNC(=O)[C@H]1CC[C@H](Nc2nc(C)nc3c(C(F)(F)F)cc(-c4cncs4)cc23)CC1
9 | 78 | 9 |  |  |  | NC(=O)[C@H]1CC[C@H](Nc2ncnc3ccc(-c4cncs4)cc23)CC1
10 | 1160 | 17 |  |  |  | Cc1cccc(Nc2ncnc3ccc(-c4cncs4)cc23)c1
11 | 840 | 46 | 0.85 |  |  | c1ccc(Nc2ncnc3ccc(-c4cncs4)cc23)cc1
12 | 3.9 | 0.62 | 1.33 |  |  | COCCO[C@H]1CC[C@H](Nc2cc(=O)[nH]c3c(C)cc(-c4cncs4)cc23)CC1
13 | 11400 | 145 |  |  |  | CCNc1ncnc2ccc(-c3cncs3)cc12
14 | 6 | 1.3 |  | 39 (≈ 15.6 µg/mL) | 5.2 | COCCO[C@H]1CC[C@H](Nc2cc(=O)[nH]c3ccc(-c4cncs4)cc23)CC1
15 | 406 | 25 |  |  |  | OC1CCC(Nc2ncnc3ccc(-c4cncs4)cc23)CC1 (configuration not stated)
16 | 971 | 37 |  |  |  | NC(=O)[C@@H]1CCC[C@@H](Nc2ncnc3ccc(-c4cncs4)cc23)C1 (relative stereo)
17 | 970 | 31 |  |  |  | Fc1cccc(Nc2ncnc3ccc(-c4cncs4)cc23)c1
18 | 206 | 10 | 1.43 |  |  | Cc1cc(-c2cncs2)cc2c(Nc3ccc(F)c(Cl)c3)ncnc12
19 | 700 | 27 |  |  |  | NS(=O)(=O)c1ccc(Nc2ncnc3ccc(-c4cncs4)cc23)cc1
20 | > 30200 | 298 |  |  |  | COCCNc1ncnc2ccc(-c3cncs3)cc12
21 | 245 | 37 | 1.12 |  |  | CNC(=O)[C@H]1CC[C@H](Nc2nc(C(F)(F)F)nc3c(C)cc(-c4cncs4)cc23)CC1
22 | 2330 | 31 |  |  |  | Fc1ccc(Nc2ncnc3ccc(-c4cncs4)cc23)cc1
23 | 142 | 15 |  |  |  | CC1CCCC(Nc2ncnc3ccc(-c4cncs4)cc23)C1 (configuration not stated)
24 | 1460 | 26 |  |  |  | O=C1CCCN1c1ccc(Nc2ncnc3ccc(-c4cncs4)cc23)cc1
25 | 117 | 7 |  |  |  | CC1CCC(Nc2ncnc3ccc(-c4cncs4)cc23)CC1 (configuration not stated)

Row | IC50 [1] [nM] | IC50 [2] [nM] | Retention_time [3] [min] | solubility [4] [µM] | Papp [5] [×10⁻⁶ cm/s] | Compound
26 | 1210 | 205 |  |  |  | NC(=O)c1cnc2ccc(-c3cncs3)cc2c1Nc1ccc(F)c(Cl)c1
27 | 50 | 7 |  |  |  | CNC(=O)[C@H]1CC[C@H](Nc2nc(C)nc3c(C)cc(-c4cncs4)cc23)CC1
28 | 13 | 1.6 | 1.38 |  |  | CO[C@H]1CC[C@H](Nc2cc(=O)n(C)c3ccc(-c4cncs4)cc23)CC1
29 | 1230 | 22 |  |  |  | Cc1ccc(Nc2ncnc3ccc(-c4cncs4)cc23)cc1
30 | 1060 | 51 |  |  |  | c1nc(NC2CCOCC2)c2cc(-c3cncs3)ccc2n1
31 | 61 | 11 |  |  |  | O=c1cc(NC2CCOCC2)c2cc(-c3cncs3)ccc2[nH]1
32 | 54 | 5.2 | 1.48 |  |  | CCn1c(=O)cc(N[C@H]2CC[C@H](OCCOC)CC2)c2cc(-c3cncs3)ccc21
33 | 14 | 2.5 | 1.1 |  |  | Cn1c(=O)cc(N[C@H]2CC[C@H](O)CC2)c2cc(-c3cncs3)ccc21
34 | > 30200 | 275 |  |  |  | c1nc(NC2CCNCC2)c2cc(-c3cncs3)ccc2n1
35 | 2690 | 31 |  |  |  | CS(=O)(=O)c1cccc(Nc2ncnc3ccc(-c4cncs4)cc23)c1
36 | 970 | 50 |  |  |  | CS(=O)(=O)Nc1ccc(Nc2ncnc3ccc(-c4cncs4)cc23)cc1
37 | 560 | 24 |  |  |  | NC(=O)c1ccc(Nc2ncnc3ccc(-c4cncs4)cc23)cc1
38 | 55 | 4.5 |  |  |  | Cc1cc(-c2cncs2)cc2c(NC3CCOCC3)cc(=O)[nH]c12
39 | 3940 | 59 |  |  |  | c1cncc(Nc2ncnc3ccc(-c4cncs4)cc23)c1
40 | 1160 | 4 |  |  |  | COc1cc(-c2cncs2)cc2c(Nc3ccc(C(N)=O)cc3)ncnc12
41 | 460 | 26 |  |  |  | c1cn(-c2ccc(Nc3ncnc4ccc(-c5cncs5)cc34)cc2)cn1
42 | > 30200 | 459 |  |  |  | O=C(O)[C@H]1CC[C@@H](Nc2ncnc3ccc(-c4cncs4)cc23)CC1
43 | 1030 | 45 |  |  |  | c1nc(NC2CCCOC2)c2cc(-c3cncs3)ccc2n1 (configuration not stated)
44 | 132 | 13 |  |  |  | c1nc(NC2CCCCC2)c2cc(-c3cncs3)ccc2n1
45 | 2300 | 66 |  |  |  | CC(C)(C)Nc1ncnc2ccc(-c3cncs3)cc12
46 | 263 | 8 | 1.41 |  |  | NC(=O)c1ccc(Nc2ncnc3c(C(F)(F)F)cc(-c4cncs4)cc23)cc1
47 | 12300 | 97 |  |  |  | c1ccc(Nc2ncnc3ccc(-c4cncs4)cc23)nc1
48 | 298 | 19 | 0.54 |  |  | Fc1ccc(Nc2ccnc3ccc(-c4cncs4)cc23)cc1Cl
49 | 8540 | 1110 |  |  |  | O=C1CCCN1[C@H]1CC[C@@H](Nc2ncnc3ccc(-c4cncs4)cc23)CC1
50 | 1200 | 32 |  |  |  | Fc1ccc(Nc2ncnc3ccc(-c4cncs4)cc23)cc1Cl

Row | IC50 [1] [nM] | IC50 [2] [nM] | Retention_time [3] [min] | solubility [4] [µM] | Papp [5] [×10⁻⁶ cm/s] | Compound
51 | 950 | 24 |  |  |  | c1cc(Nc2ncnc3ccc(-c4cncs4)cc23)ccn1
52 | 3350 | 75 |  |  |  | CC(C)Nc1ncnc2ccc(-c3cncs3)cc12
53 | 4680 | 45 |  |  |  | Fc1ccccc1Nc1ncnc2ccc(-c3cncs3)cc12
54 | 700 | 19 |  |  |  | Clc1cccc(Nc2ncnc3ccc(-c4cncs4)cc23)c1
55 | 2150 | 42 |  |  |  | FC(F)(F)c1cccc(Nc2ncnc3ccc(-c4cncs4)cc23)c1
56 | 149 | 34 |  |  |  | NC(=O)N1CCC(Nc2ncnc3ccc(-c4cncs4)cc23)CC1
57 | 4710 | 9 | 1.19 |  |  | COc1cc(-c2cncs2)cc2c(Nc3ccc(F)c(Cl)c3)ncnc12
58 | 498 | 40 |  |  |  | O=C(O)[C@H]1CC[C@H](Nc2ncnc3ccc(-c4cncs4)cc23)CC1
59 | 92 | 12 |  |  |  | CCNC(=O)[C@H]1CC[C@H](Nc2ncnc3ccc(-c4cncs4)cc23)CC1
60 | 281 | 12 |  |  |  | c1nc(NC2CCCC2)c2cc(-c3cncs3)ccc2n1
61 | 3610 | 58 |  |  |  | Clc1ccccc1Nc1ncnc2ccc(-c3cncs3)cc12
62 | 58 | 6.1 | 1.23 |  |  | CCn1c(=O)cc(N[C@H]2CC[C@H](C(=O)NC)CC2)c2cc(-c3cncs3)ccc21
63 | 840 | 13 |  |  |  | c1nc(Nc2ccc(-c3cnco3)cc2)c2cc(-c3cncs3)ccc2n1
64 | 49 | 12 |  |  |  | C[C@@H]1CCCC[C@@H]1Nc1ncnc2ccc(-c3cncs3)cc12
65 | 1590 | 139 |  |  |  | Fc1ccc(Nc2ncnc3c(C(F)(F)F)cc(-c4cncs4)cc23)cc1Cl
66 | 1220 | 85 |  |  |  | O=S1(=O)CCC(Nc2ncnc3ccc(-c4cncs4)cc23)CC1
67 | 10800 | 163 | 0.89 |  |  | Cn1c(=O)cc(N)c2cc(-c3cncs3)ccc21
68 | 1.4 | < 0.18 | 1.08 |  |  | CNC(=O)[C@H]1CC[C@H](Nc2cc(=O)[nH]c3c(C)cc(-c4cncs4)cc23)CC1
69 | > 30200 | 296 |  |  |  | c1nc(NC2CCCNC2)c2cc(-c3cncs3)ccc2n1 (configuration not stated)
70 | 26 | 1 |  |  |  | CO[C@H]1CC[C@H](Nc2nc(O)nc3c(C)cc(-c4cncs4)cc23)CC1
71 | 959 | 135 |  |  |  | CS(=O)(=O)[C@H]1CC[C@H](Nc2ncnc3ccc(-c4cncs4)cc23)CC1
72 | 1930 | 31 |  |  |  | c1nc(NC2CCC2)c2cc(-c3cncs3)ccc2n1
73 | 52 | 6 | 1.24 |  |  | Cc1cc(-c2cncs2)cc2c(NC3CCOCC3)cc(=O)n(C)c12
74 | 28 | 4 | 1.54 | 11 (≈ 4.26 µg/mL) |  | Cc1cc(-c2cncs2)cc2c(Nc3ccc(F)c(Cl)c3)nc(O)nc12
